Assay results reported in ChEMBL document CHEMBL6182902, “Design, synthesis, and discovery of cinnamoyl amide derivatives as potent NagZ inhibitors with antibacterial activity” (Eur J Med Chem, 2025).
Active and inactive are the calls of the source. The calls are words filed in the database; no cut-off is given here.

Columns and labels:
[1] = Inhibition of recombinant N-terminal His-tagged Escherichia coli BL21 NagZ extracted from Escherichia coli BL21 using pNP-GlcNAc as substrate by absorbance based assay
Escherichia coli = experiment: Inhibition of recombinant N-terminal His-tagged Escherichia coli BL21 NagZ extracted from Escherichia coli BL21 using pNP-GlcNAc as substrate at 100 uM by absorbance based assay relative to control
[2] = Inhibition of recombinant N-terminal His-tagged Escherichia coli BL21 NagZ extracted from Escherichia coli BL21 using different concentrations of substrate pNP-GlcNAc by 4-nitrophenolate ion release based spectrophotometric analysis
Pseudomonas aeruginosa [3] = experiment: Antibacterial activity against Pseudomonas aeruginosa ATCC 27853 infected in female KM mouse assessed as wound healing rate in skin at 20 mg/kg, iv measured after 3 days (reference value: 36.2 %); format: functional; details: time 3 day
Pseudomonas aeruginosa [4] = experiment: Antibacterial activity against Pseudomonas aeruginosa ATCC 27853 infected in female KM mouse assessed as epithelial tissue proliferation in skin at 20 mg/kg, iv measured after 3 days; format: functional, organism-based; details: time 3.0 day
Pseudomonas aeruginosa [5] = experiment: Antibacterial activity against Pseudomonas aeruginosa ATCC 27853 infected in female KM mouse assessed as wound healing rate in skin at 40 mg/kg, iv measured after 3 days (reference value: 36.2 %); format: functional; details: time 3 day
Pseudomonas aeruginosa [6] = experiment: Antibacterial activity against Pseudomonas aeruginosa ATCC 27853 infected in female KM mouse assessed as increase in wound contraction in skin at 40 mg/kg, iv measured after 3 days; format: functional, organism-based; details: time 3.0 day
Pseudomonas aeruginosa [7] = experiment: Antibacterial activity against Pseudomonas aeruginosa ATCC 27853 infected in female KM mouse assessed as epithelial tissue proliferation in skin at 40 mg/kg, iv measured after 3 days; format: functional, organism-based; details: time 3.0 day

| SMILES | inhibition (Escherichia coli) | other results |
| --- | --- | --- |
| C=CCc1ccc(O)c(-c2cc(CC=C)ccc2O)c1 [MAGNOLOL] | 58.9% | IC50 [1]: 88.3 µM |
| O=C(/C=C/c1ccc(Cl)cc1)N[C@H](Cc1ccc(Br)cc1)C(=O)O | 49.8% |  |
| CC1(C)[C@@H](O)CC[C@]2(C)[C@H]3C(=O)C=C4[C@H]5C[C@@](C)(C(=O)O)CC[C@]5(C)CC[C@@]4(C)[C@]3(C)CC[C@@H]12 [18alpha-GLYCYRRHETINIC ACID] | 69.6% | IC50 [1]: 75.5 µM |
| O=C(/C=C/c1ccc(F)c(Cl)c1)N[C@H](Cc1ccc(Br)cc1)C(=O)O | 71.6% |  |
| O=C(/C=C/c1ccc(I)cc1)N[C@@H](Cc1ccc(I)cc1)C(=O)O | 85.5% | IC50 [1]: 110 µM; Ki [2]: 14.3 µM |
| O=C(/C=C/c1ccc(O)c(O)c1)O[C@H](Cc1ccc(O)c(O)c1)C(=O)O [ROSMARINIC ACID] | 64.3% | IC50 [1]: 56.1 µM |
| O=C(/C=C/c1ccc(O)c(O)c1)N[C@@H](Cc1ccc(I)cc1)C(=O)O | 66.5% |  |
| COC(=O)[C@H](Cc1ccc(I)cc1)NC(=O)/C=C/c1ccc(Cl)c(Cl)c1 | inactive |  |
| O=C(/C=C/c1ccccc1)N[C@H](Cc1ccc(Br)cc1)C(=O)O | 15.9% |  |
| O=C(/C=C/c1ccc(Cl)c(Cl)c1)NC(Cc1ccc(Br)cc1)C(=O)O (racemic) | 86.1% | IC50 [1]: 36.5 µM; Ki [2]: 22.4 µM |
| O=C(O[C@@H]1Cc2c(O)cc(O)cc2O[C@H]1c1cc(O)c(O)c(O)c1)c1cc(O)c(O)c(O)c1 [GALLOCATECHIN GALLATE] | 54.9% | IC50 [1]: 64.3 µM |
| O=C(/C=C/c1ccc([N+](=O)[O-])o1)N[C@H](Cc1ccc(Br)cc1)C(=O)O | 38.2% |  |
| O=C(/C=C/c1ccc(Cl)cc1)N[C@@H](Cc1ccc(I)cc1)C(=O)O | 75.7% | IC50 [1]: 182 µM; Ki [2]: 56.1 µM |
| O=C(/C=C/c1ccc(Cl)c(Cl)c1)N[C@@H](Cc1ccccc1)C(=O)O | 50.4% |  |
| O=C(/C=C/c1cccc([N+](=O)[O-])c1)N[C@@H](Cc1ccc(I)cc1)C(=O)O | 42.1% |  |
| O=C(/C=C/c1ccc(F)cc1)NC(Cc1ccc(Br)cc1)C(=O)O (racemic) | 17.5% |  |
| COC(=O)C(Cc1ccc(Br)cc1)NC(=O)/C=C/c1ccc(Cl)c(Cl)c1 (racemic) | inactive |  |
| CC1(C)CC[C@]2(C(=O)O)CC[C@]3(C)C(=CC[C@@H]4[C@@]5(C)CC[C@H](O)[C@@](C)(CO)[C@@H]5CC[C@]43C)[C@@H]2C1 [HEDERAGENIN] | 29.4% | IC50 [1]: 101 µM |
| O=C(/C=C/c1ccccc1)N[C@@H](Cc1ccc(I)cc1)C(=O)O | 20.2% |  |

| SMILES | inhibition (Escherichia coli) | other results |
| --- | --- | --- |
| O=C(/C=C/c1ccc([N+](=O)[O-])cc1)N[C@@H](Cc1ccc(I)cc1)C(=O)O | 37.2% |  |
| CC1=C(O)C(=O)C=C2C1=CC=C1[C@@]2(C)CC[C@@]2(C)[C@@H]3C[C@](C)(C(=O)O)CC[C@]3(C)CC[C@]12C [CELASTROL] | 50% | IC50 [1]: 62.8 µM |
| O=C(/C=C/c1ccc(F)c(Cl)c1)N[C@@H](Cc1ccc(I)cc1)C(=O)O | 72% |  |
| O=C(C#Cc1ccccc1)N[C@@H](Cc1ccc(I)cc1)C(=O)O | 29.7% |  |
| COC(=O)C(Cc1ccc(Br)cc1)NC(=O)/C=C/c1ccc(F)cc1 (racemic) | 7.2% |  |
| O=C(/C=C/c1ccc([N+](=O)[O-])o1)N[C@@H](Cc1ccc(I)cc1)C(=O)O | 48.4% |  |
| O=C(/C=C/c1ccc(Br)cc1)N[C@H](Cc1ccc(Br)cc1)C(=O)O | 46.5% |  |
| O=C(O[C@@H]1Cc2c(O)cc(O)cc2O[C@@H]1c1ccc(O)c(O)c1)c1cc(O)c(O)c(O)c1 [EPICATECHIN GALLATE] | 45.1% | IC50 [1]: 70.4 µM |
| O=C(/C=C/c1cc(F)c(F)c(F)c1)N[C@@H](Cc1ccc(I)cc1)C(=O)O | 60.3% |  |
| O=C(CCc1ccccc1)N[C@@H](Cc1ccc(I)cc1)C(=O)O | 21.5% |  |
| O=C(/C=C/c1ccc2ccccc2c1)N[C@@H](Cc1ccc(I)cc1)C(=O)O | 87% | IC50 [1]: 10.8 µM; Ki [2]: 7.4 µM |
| O=C(/C=C/c1ccco1)N[C@@H](Cc1ccc(I)cc1)C(=O)O | 35.8% |  |
| COC(=O)[C@H](Cc1ccc(I)cc1)NC(=O)/C=C/c1ccc(F)cc1 | 14% |  |
| O=C(CCc1ccc(Cl)c(Cl)c1)N[C@@H](Cc1ccc(I)cc1)C(=O)O | 73.5% |  |
| O=C(O)[C@H](Cc1ccc(I)cc1)NC(=O)[C@H]1C[C@@H]1c1ccccc1 | 29.1% |  |
| C[C@@H](O)[C@H]1C(=O)N2C(C(=O)O)=C(SCCNC=N)C[C@H]12 [IMIPENEM ANHYDROUS] |  | Activity (Pseudomonas aeruginosa [3]): 54.4%; Activity (Pseudomonas aeruginosa [4]): Active |
| O=C(/C=C/c1ccc(Cl)c(Cl)c1)N[C@@H](Cc1c[nH]c2ccccc12)C(=O)O | 68.2% |  |
| O=C(/C=C\c1ccccc1)N[C@@H](Cc1ccc(I)cc1)C(=O)O | 12% |  |
| COC(=O)[C@H](Cc1ccccc1)NC(=O)/C=C/c1ccc(Br)cc1 | inactive |  |

| SMILES | inhibition (Escherichia coli) | other results |
| --- | --- | --- |
| O=C(/C=C/c1cccc(Cl)c1)N[C@@H](Cc1ccccc1)C(=O)O | 19.9% |  |
| COC(=O)[C@H](Cc1ccccc1)NC(=O)/C=C/c1cccc(Cl)c1 | 11.6% |  |
| O=C(/C=C/c1ccc(Br)cc1)N[C@@H](Cc1ccc(I)cc1)C(=O)O | 81.2% | IC50 [1]: 119 µM; Ki [2]: 24.2 µM |
| O=C(/C=C/c1c(Cl)cccc1Cl)N[C@@H](Cc1ccc(I)cc1)C(=O)O | 76.9% | IC50 [1]: 84.9 µM; Ki [2]: 22.2 µM |
| CC(=O)N[C@H]1/C(=N/OC(=O)Nc2ccccc2)O[C@H](CO)[C@@H](O)[C@@H]1O [PUGNAC] |  | Ki [1]: 0.075 µM |
| O=C(/C=C/c1ccc(O)cc1)N[C@@H](Cc1ccc(I)cc1)C(=O)O | 46.2% |  |
| O=C(/C=C/c1ccc(Cl)c(Cl)c1)NC(Cc1ccc(Cl)cc1)C(=O)O (racemic) | 77.1% |  |
| O=C(/C=C/c1ccc(Br)cc1)N[C@@H](Cc1ccccc1)C(=O)O | 16.9% |  |
| COC(=O)[C@H](Cc1ccccc1)NC(=O)/C=C/c1ccc(Cl)c(Cl)c1 | inactive |  |
| O=C(/C=C/c1ccc(F)c(F)c1)N[C@@H](Cc1ccc(I)cc1)C(=O)O | 30.5% |  |
| COC(=O)C(Cc1ccc(Br)cc1)NC(=O)/C=C/c1ccc(Cl)cc1 (racemic) | inactive |  |
| O=C(/C=C/c1ccc(Cl)c(Cl)c1)N[C@H](Cc1ccc(Br)cc1)C(=O)O | 87% | IC50 [1]: 6.3 µM; Ki [2]: 3.5 µM |
| O=C(/C=C/c1ccc(F)cc1)N[C@@H](Cc1ccc(I)cc1)C(=O)O | 34.3% |  |
| O=C(/C=C/c1c[nH]c2ccccc12)N[C@@H](Cc1ccc(I)cc1)C(=O)O | 78.8% | IC50 [1]: 39.6 µM; Ki [2]: 15.5 µM |
| O=C(O[C@@H]1Cc2c(O)cc(O)cc2O[C@@H]1c1cc(O)c(O)c(O)c1)c1cc(O)c(O)c(O)c1 [EPIGALOCATECHIN GALLATE] | 51.4% | IC50 [1]: 61.2 µM |
| CC(C)(O/N=C(\C(=O)N[C@@H]1C(=O)N2C(C(=O)[O-])=C(C[n+]3ccccc3)CS[C@H]12)c1csc(N)n1)C(=O)O [CEFTAZIDIME] |  | Activity (Pseudomonas aeruginosa [5]): 62.2%; Activity (Pseudomonas aeruginosa [6]): Active; Activity Higher Than Imipenem; Activity (Pseudomonas aeruginosa [7]): Active |
| O=C(/C=C/c1ccc(Cl)cc1)NC(Cc1ccc(Br)cc1)C(=O)O (racemic) | 37.2% |  |
| O=C(/C=C/c1ccc(I)cc1)N[C@H](Cc1ccc(Br)cc1)C(=O)O | 76.1% |  |
| O=C(N[C@@H](Cc1ccc(I)cc1)C(=O)O)/C(=C/c1ccccc1)c1ccccc1 | 86.8% | IC50 [1]: 39.6 µM; Ki [2]: 15.5 µM |
